The values that follow come from the RepoRT retention time repository.

The data set is described as follows: Agilent ZORBAX 300 SB-C18, 150 × 1 mm, 3.5 µm; A: water + 0.01% heptafluorobutyric acid; B: acetonitrile + 0.01% heptafluorobutyric acid; gradient (min/%B) 0/0 100/90. The note with it: stereoisomer not certain.
For `CC(c1ccccc1)C(N)C(=O)O` (stereo unspecified), the LC retention time was found to be 7.08 min. As for `Nc1ccc(N2CCCC2=O)cc1N1CCCC1=O`, the figure is 7.63 min. As for `C[N+](C)(CCOCc1ccccc1)CCOCc1ccccc1`, the figure is 11.7 min; as for `c1ccc(CN2CCCC2)nc1`, 7.01 min; as for `Cc1ccc2nc(-c3nn[nH]n3)ccc2c1`, 10.5 min. Then `CC(=O)NCC(NC(C)=O)C(C)(C)C` (stereo unspecified), with 7.28 min; and `Nc1ccccc1CO`, with 6.62 min; and `Cc1cccc(NC(=S)NNC(=O)c2cccc(C)c2)c1`, with 12.3 min. For `CN(C)CCCNCCCN`, the LC retention time is 7.35 min.

Turning to `C[N+]1(CC=C2COCO2)CCCCC1`, the LC retention time is 7.48 min. Then `Cc1cccc(C(=O)C=CN(C)C)c1`, with 10.9 min; and `O=C1NCCO1`, with 2.05 min; and `O=C(c1ccc(-c2ccccc2)cc1)N1CCN(c2ccccc2)CC1`, with 16.5 min.

For `CCCCNCCCC`, the LC retention time is 8.38 min. As for `NC(=S)CCc1ccccn1`, the figure is 6.55 min. Then `Cc1cnc(C)cn1`, with 7.49 min. Then `Nc1nc(=Nc2ccccc2)n2c(n1)sc1ccccc12`, with 10.4 min; and `CCCN1CCCC(C(N)=O)C1` (stereo unspecified), with 6.49 min. `CCNCCNCC`: the LC retention time turned out to be 6.88 min. Then `CC(C)(C)c1ccc(C(=O)Nc2ccc(N)cc2)cc1`, with 11.2 min; and `CCCc1ccc(N)cc1`, with 9.04 min.

`Nc1ccc(C(=O)N2CCC(c3ccccc3)C2)cc1` (stereo unspecified): the LC retention time is 11 min.

On to `NC1CCOC1=O` (stereo unspecified), for which the LC retention time worked out at 3.11 min. Then `c1ccc(-c2nc3ccccc3[nH]2)cc1`, with 9.01 min; and `CC(C)CC(N)C(N)=O` (stereo unspecified), with 6.71 min; and `CCCNC`, with 5.85 min.

With `c1cc(N2CCCC2)ccn1`, the LC retention time was found to be 7.65 min. As for `Cc1cc(C)c(-c2csc(N)n2)c(C)c1`, the figure is 8.82 min; as for `COc1ccc(-n2c(O)c(Cc3ccc(OC)c(OC)c3)c(=O)[nH]c2=O)cc1`, 10.7 min.

In the case of `CNCCCC12CCC(c3ccccc31)c1ccccc12`, the LC retention time is 11.7 min. As for `CN1Cc2ccccc2CC1C(=O)O` (stereo unspecified), the LC retention time came to 6.42 min. Then `COc1cc(C=CC(=O)c2ccc(C)cc2)cc(OC)c1OC`, with 15.9 min; and `CC(C)(C)c1ccc(NC(=O)NCc2ccco2)cc1`, with 14.5 min; and `CCN(CC)c1ccc(C(=O)NC(c2ccccc2)c2ccccc2)cc1`, with 15.8 min. Then `Cc1ccc(-c2csc(-c3cccnc3)n2)cc1C`, with 11.3 min. On to `O=C(O)c1ccccc1CN1CCCC1`, for which the LC retention time turned out to be 7.5 min. As for `CC(=O)Oc1ccc2c(c1)cc(C)n2C`, the figure is 13.3 min. As for `N=C(N)N=Nc1ccc(O)cc1`, the figure is 7.38 min. Then `c1ccc2c(c1)Cc1cc3ccccc3nc1-2`, with 11.4 min. On to `CCOC(=O)c1c(N)n(C(C)=O)[nH]c1=O`, for which the LC retention time stood at 6.93 min.

Take `C1=Nc2ccccc2C(c2cccc3ccccc23)C1c1ccc2ccccc2n1` (stereo unspecified): the LC retention time amounted to 12.9 min. Take `CC(C)N(C)C`: the LC retention time worked out at 5.87 min. As to `Cc1ccc(NC(=O)c2c(C)[nH]c(C)c2C)c(C)c1`, the LC retention time was determined as 13.2 min.

For `CCOC(CN1CCCCC1)OCC`, the LC retention time is 8.11 min. Then `COC(=O)c1ccc(NC(=O)CC(=O)Nc2ccc(C(=O)OC)cc2)cc1`, with 12.2 min; and `c1cncc(-c2nn[nH]n2)c1`, with 5.35 min; and `O=C1Nc2ccccc2C1CCCO` (stereo unspecified), with 8.22 min. `Cc1cccc(C(=O)N2CCc3c([nH]c4ccccc34)C2c2ccccc2)c1` (stereo unspecified): the LC retention time was determined as 17.8 min. Then `COC(=O)CCC(=O)Nc1ccc(C)cc1C`, with 11.7 min; and `Nc1ncccn1`, with 5.83 min. Then `CCOC(=O)CC(=O)Nc1ccc(C(=O)OC)cc1`, with 11.1 min; and `CCCNC1CCN(C(C)=O)CC1`, with 6.77 min; and `S=C(Nc1cccnc1)NC1CCCc2ccccc21` (stereo unspecified), with 11 min. Then `CCCCCCCCCCCCN(C)C`, with 13.7 min; and `Cc1ccc(-c2nn(CC(=O)Nc3cccnc3)c(=O)c3ccccc23)cc1`, with 11.3 min; and `CCCc1cc2c(cc1N)OCO2`, with 9.27 min. Consider `NCC(O)CO` (stereo unspecified), for which the LC retention time was 2.77 min. Turning to `CC(C)(C)c1ccc2[nH]c3c(c2c1)CCCC3=O`, the LC retention time came to 16.5 min.

`COCCNC(=O)Cn1c(=O)n(C)c2ccccc21`: the LC retention time was 8.47 min. Then `CCc1ccc(NCCC(=O)c2ccc(C(C)(C)C)cc2)cc1`, with 16.5 min; and `COC(=O)C1C2CC3c4[nH]c5cc(OC)ccc5c4CCN3CC2CC(OC(=O)c2cc(OC)c(OC)c(OC)c2)C1OC` (stereo unspecified), with 12.4 min. On to `CCOC(=O)C=CC(=O)NNC(=O)C(c1ccccc1)c1ccccc1`, for which the LC retention time came out at 12.8 min. Then `Cc1ccccc1N`, with 7.59 min; and `CCNC(=S)NCCc1c[nH]c2ccccc12`, with 11.2 min; and `CCCCCCCCSCCSC(=N)N`, with 12.7 min. Then `CCc1ccc(N2CC(C(=O)O)CC2=O)cc1` (stereo unspecified), with 10.5 min; and `C=C(C)CC1C=CCC(CC(=C)C)N1Cc1ccccc1` (stereo unspecified), with 11.9 min.

Turning to `c1ccc2c(N3CCCCC3)nc(N3CCCC3)nc2c1`, the LC retention time was found to be 11.7 min.

As to `Cc1ncnc2nc[nH]c12`, the LC retention time was 5.87 min. As for `O=Cc1ccc[nH]1`, the figure is 6.97 min; as for `c1ccc(Cn2c3ccccc3n3c(Nc4ccccc4)nnc23)cc1`, 12.7 min; as for `Cn1c(=O)c2c(ncn2C)n(C)c1=O`, 7.49 min. As for `NC(=O)N1CCC(CCCC2CCN(C(N)=O)CC2)CC1`, the figure is 9.11 min. Take `CC(=O)c1cccc(NC(=O)Nc2ccc(C)cc2)c1`: the LC retention time is 12.9 min. Regarding `O=C1CCCCCN1CP(=O)(O)CCc1ccccc1`, the LC retention time worked out at 9 min.

Consider `Cc1cccc(C=NNC(=O)C[n+]2ccccc2)c1`, for which the LC retention time stood at 9.09 min. As for `O=C(O)CCc1ccc(-c2ccccc2)[nH]1`, the figure is 11.9 min; as for `C(=NNc1nncc2ccccc12)c1cccnc1`, 8.37 min; as for `Cn1cnc2c1c(=O)[nH]c(=O)n2C`, 6.5 min.

Turning to `CNC(=S)Nc1c(C)cccc1C`, the LC retention time is 9.89 min. Then `CCC(N)CC`, with 7.05 min. As to `CN(C)c1ccccn1`, the LC retention time amounted to 6.81 min. As for `CCn1c2ccccc2c2cc(CNC3CC3)ccc21`, the figure is 10.8 min; as for `COc1ccc(CN2CCC(N)CC2)cc1OC`, 7.7 min; as for `O=C(O)CCn1c2c(c3ccccc31)CCCC2`, 14.3 min. Consider `Cc1ccccc1C(=O)NC1CC(C)(C)NC(C)(C)C1`, for which the LC retention time was found to be 8.46 min.

For the molecule `CN(CCCN)CCCN`, the LC retention time was 7.45 min. Regarding `CN(C)CCOC(C)(c1ccccc1)c1ccccn1` (stereo unspecified), the LC retention time worked out at 8.98 min. Consider `N=C(N=C(N)N)N1CCOCC1`, for which the LC retention time came out at 6.32 min.

Take `CC(N)Cc1ccc2oc3ccccc3c2c1` (stereo unspecified): the LC retention time was determined as 10.1 min. As to `CSC1=NCCN1`, the LC retention time came to 5.98 min.

With `C=CCN1CCNCC1`, the LC retention time turned out to be 7.39 min. Then `NCC(=O)Nc1ccccc1`, with 7.45 min; and `Cc1cc(C)c2c(=O)n(CC(=O)NC(C)CCc3ccccc3)c(=O)n(-c3ccccc3)c2n1` (stereo unspecified), with 15.7 min.

As for `CC(=O)C1(O)CCC2C3CC(C)C4=CC(=O)CCC4(C)C3CCC21C` (stereo unspecified), the LC retention time came to 15.2 min.

With `Nc1ccc2c(c1)C(=O)N(c1ccc3ccccc3c1)C2=O`, the LC retention time came to 13.6 min. For the molecule `CCCCCCCCCCCCCCCCCCNC`, the LC retention time was 19 min.

With `NC(=O)NCc1ccccn1`, the LC retention time worked out at 3.95 min. As for `NCCOc1ccc2ccccc2c1`, the figure is 9.22 min; as for `Cn1c(=O)c2cc(S(=O)(=O)O)ccc2n(C)c1=O`, 5.36 min; as for `CC(=O)N1c2ccc(N)cc2CC1C` (stereo unspecified), 7.53 min. Then `Cc1cccc(Nc2cc(C)nc3ccccc23)c1`, with 10.4 min. As for `COC(=O)c1cccc(C(=O)OC)n1`, the figure is 8.45 min; as for `CNCCCCCCNC`, 7.03 min; as for `Cc1c(C(=O)N(C)c2ccccc2)oc2ccccc12`, 15.3 min.

With `CCc1c(C)[nH]c(C(=O)OCc2ccccc2)c1C`, the LC retention time came out at 17.1 min.

As to `Cc1nn[nH]n1`, the LC retention time came to 2.16 min. In the case of `CC(NC(=O)c1ccccc1)C(=O)O` (stereo unspecified), the LC retention time is 8 min. On to `CCN(Cc1ccncc1)C(=S)NCCc1ccccc1`, for which the LC retention time is 10.2 min. As for `Cc1nc2ccc(N)cc2nc1C`, the LC retention time amounted to 7.33 min. As for `CC(C)(C)C(=N)C(C)(C)C`, the figure is 8.06 min; as for `Cc1nc2ccccc2nc1C=O`, 10.9 min; as for `OCC1CC(O)CN1` (stereo unspecified), 2.85 min. As for `C#CC(C)(C)NC(=O)NC(C)(C)C#C`, the figure is 9.95 min; as for `CCOC(=O)c1c(-c2ccccc2)c[nH]c1C`, 13.4 min; as for `c1ccc(-c2cnc(-c3cccc4ccccc34)o2)cc1`, 19.4 min.
